According to ChEMBL document CHEMBL1139665, “Synthesis, X-ray crystallographic analysis, and antitumor activity of N-(benzothiazole-2-yl)-1-(fluorophenyl)-O,O-dialkyl-alpha-aminophosphonates” (2006):

What was measured:
PC-3 [1] = experiment: Antiproliferative activity against PC3 cells at 5 uM by MTT assay after 72 hrs; assay type: functional; conditions: Homo sapiens, PC-3, 72 h
[2] = Antiproliferative activity against Bcap37 cells at 5 uM by MTT assay after 72 hrs; assay type: functional, Homo sapiens
A-375 [3] = experiment: Antiproliferative activity against A375 cells at 10 uM by MTT assay after 72 hrs; assay type: functional; conditions: Homo sapiens, A-375, 72 h
A-375 [4] = experiment: Antiproliferative activity against A375 cells at 1 uM by MTT assay after 72 hrs; assay type: functional; conditions: Homo sapiens, A-375, 72 h
A-431 [5] = experiment: Antiproliferative activity against A431 cells at 1 uM by MTT assay after 72 hrs; assay type: functional; conditions: Homo sapiens, A-431, 72 h
[6] = Antiproliferative activity against Bcap37 cells at 10 uM by MTT assay after 72 hrs; assay type: functional, Homo sapiens
PC-3 [7] = experiment: Antiproliferative activity against PC3 cells at 1 uM by MTT assay after 72 hrs; assay type: functional; conditions: Homo sapiens, PC-3, 72 h
A-431 [8] = experiment: Antiproliferative activity against A431 cells at 5 uM by MTT assay after 72 hrs; assay type: functional; conditions: Homo sapiens, A-431, 72 h
A-431 [9] = experiment: Antiproliferative activity against A431 cells at 10 uM by MTT assay after 72 hrs; assay type: functional; conditions: Homo sapiens, A-431, 72 h
A-375 [10] = experiment: Antiproliferative activity against A375 cells at 5 uM by MTT assay after 72 hrs; assay type: functional; conditions: Homo sapiens, A-375, 72 h
PC-3 [11] = experiment: Antiproliferative activity against PC3 cells at 10 uM by MTT assay after 72 hrs; assay type: functional; conditions: Homo sapiens, PC-3, 72 h
[12] = Antiproliferative activity against Bcap37 cells at 1 uM by MTT assay after 72 hrs; assay type: functional, Homo sapiens

SMILES | inhibition at 5 µM (PC-3 [1]) [%] | inhibition at 5 µM [2] [%] | inhibition at 10 µM (A-375 [3]) [%] | inhibition at 1 µM (A-375 [4]) [%] | inhibition at 1 µM (A-431 [5]) [%] | inhibition at 10 µM [6] [%] | inhibition at 1 µM (PC-3 [7]) [%] | inhibition at 5 µM (A-431 [8]) [%] | inhibition at 10 µM (A-431 [9]) [%] | inhibition at 5 µM (A-375 [10]) [%] | inhibition at 10 µM (PC-3 [11]) [%] | inhibition at 1 µM [12] [%]
CCCOP(=O)(OCCC)C(Nc1nc2c(C)cccc2s1)c1ccccc1F (stereo unspecified) | 29.4 | 0.8 | 4.3 | -0.2 | 15.9 | 21.7 | 21.7 | 27.3 | 31.7 | 4.8 | 43.3 | -18.9
COc1ccc2nc(NC(c3ccccc3F)P(=O)(OC)OC)sc2c1 (stereo unspecified) | 26.6 | 17.8 | 11.4 | 4.3 | 1.9 | 25.1 | 21.4 | 7.9 | 8.64 | 10.1 | 33.3 | 11.9
CCOP(=O)(OCC)C(Nc1nc2c(C)cccc2s1)c1ccc(C(F)(F)F)cc1 (stereo unspecified) | 13.5 | 9.8 | 14.2 | -10.2 | 0.36 | 16.7 | 12.6 | 2.06 | 16.9 | 1.6 | 49.3 | -5.2
CCCCOP(=O)(OCCCC)C(Nc1nc2ccc(OC)cc2s1)c1ccccc1F (stereo unspecified) | 5.3 | 38.2 | 17.4 | -6.2 | -3.7 | 44.2 | -6.6 | 5.4 | 28.8 | 3.5 | 13.2 | 23.6
CCOP(=O)(OCC)C(Nc1nc2ccc(OC)cc2s1)c1ccc(F)cc1 (stereo unspecified) | 41 | 39 | 34.5 | 8 | 11.2 | 49.9 | 32.1 | 20.9 | 31.2 | 10.9 | 49.5 | 10
CCCCOP(=O)(OCCCC)C(Nc1nc2c(C)cccc2s1)c1ccc(C(F)(F)F)cc1 (stereo unspecified) | 31.6 | 9.2 | 31.5 | -3.2 | 37.7 | 20.3 | 5 | 40.8 | 57.4 | 21.6 | 36 | 0.1
CCOP(=O)(OCC)C(Nc1nc2ccc(OC)cc2s1)c1ccccc1F (stereo unspecified) | 22.5 | 34.5 | 15.7 | 7.5 | 4.5 | 49.4 | 16.8 | 12.3 | 22.1 | 7.9 | 38.9 | 20.5
CCCOP(=O)(OCCC)C(Nc1nc2ccc(OC)cc2s1)c1ccccc1F (stereo unspecified) | 15.8 | 25.1 | 23.8 | 10.3 | 35.3 | 27.1 | 5 | 49.2 | 58.1 | 13.9 | 28.7 | 21.3
Cc1cccc2sc(NC(c3ccc(C(F)(F)F)cc3)P(=O)(OC(C)C)OC(C)C)nc12 (stereo unspecified) | 15.3 | 11.2 | 9.1 | -1.3 | 17.3 | 22.7 | 6.3 | 20.5 | 29.5 | 8.6 | 25.9 | -0.7
CCCCOP(=O)(OCCCC)C(Nc1nc2c(C)cccc2s1)c1ccccc1F (stereo unspecified) | 86 | 29 | 32.1 | 11.2 | 32.1 | 38.1 | 52.1 | 49 | 72.1 | 25.6 | 89.1 | 10
CCOP(=O)(OCC)C(Nc1nc2c(C)cccc2s1)c1ccccc1F (stereo unspecified) | 22.9 | 42.6 | 9.2 | -13.9 | 17.7 | 58.9 | 3.51 | 23.3 | 35.3 | -6.1 | 41.9 | 35.8
COc1ccc2nc(NC(c3ccccc3F)P(=O)(OC(C)C)OC(C)C)sc2c1 (stereo unspecified) | 2.1 | 43.2 | 2.8 | -4.3 | -7.4 | 50.4 | -8.5 | 7.5 | 16.7 | 1.7 | 18.5 | 39.7
COP(=O)(OC)C(Nc1nc2c(C)cccc2s1)c1ccc(C(F)(F)F)cc1 (stereo unspecified) | 4.6 | -0.8 | 20.8 | 1.8 | 22.1 | 2.5 | 4 | 26 | 47.3 | 19.2 | 8.9 | -13.2
